One compound from article PMC8546892 (Acta Pharmaceutica Sinica. B, 2021) can be followed below.

The test system of this assay is GSK-3β. The assay is described as follows: Immunoblot of GSK-3β in Trib3-silenced AMs with MG132 or 3MA. Conditions: immunoblots, Fig. S4C. It counts as cell-based, mouse.

Residues, ends and D or L forms follow the SMILES beside them. *: point of attachment. Cbz = O=C(OCc1ccccc1)*

In the case of `CC(C)C[C@@H](C=O)NC(=O)[C@H](CC(C)C)NC(=O)[C@H](CC(C)C)NC(=O)OCc1ccccc1` [MG132] (Cbz-Leu-Leu-Leu-aldehyde), the “Trib3 depletion-induced reduction in GSK-3β expression” value is on record as “reversed”.
